Laboratory results as given in patent US9994758B2, “Microbial metabolism of chlorine oxyanions as a control of biogenic hydrogen sulfide production” (The Regents of the University of California, priority 2011, dated 2018).

Columns and labels:
Desulfovibrio vulgaris = assay: Inhibition of sulfidogenesis by sulfate-reducing bacteria (D. vulgaris culture, lactate/sulfate medium); type: cell-based
Protocol: Twelve tubes of basal anaerobic medium containing 15 mM lactate and 15 mM sulfate were inoculated with an active culture of D. vulgaris and incubated for 6 hours at 30° C., until a visible increase in optical density was observed. After six hours, the tubes were further inoculated with A. suillum and 15 mM chlorate prior to incubation overnight at 30° C., as outlined in Table 2.

[1] = test system: marine sediment slurry microcosms; assay: Sulfide inhibition in marine sediment slurry microcosms; type: cell-based; details: addition of chlorate and Dechloromarinus strain NSS, extended incubation for over 250 hours
Description: In the absence of chlorate and Dechloromarinus strain NSS sulfide is readily produced.

[O-][Cl+2]([O-])O [chlorate]
sulfide production by D. vulgaris relative to control cells incubated without chlorate (Desulfovibrio vulgaris; 15 mM chlorate alone, 24 hours, 30° C., 15 mM lactate and 15 mM sulfate): 49%
sulfide production by D. vulgaris relative to control cells incubated in the absence of A. suillum and chlorate (Desulfovibrio vulgaris; 15 mM chlorate together with A. suillum, 24-hour incubation, 30° C., 15 mM lactate and 15 mM sulfate): 17%
antimicrobial activity against D. vulgaris (Desulfovibrio vulgaris; chlorate at relatively low concentrations (15 mM)): has antimicrobial activity against D. vulgaris
time course of sulfidogenesis by D. vulgaris (FIG. 6) (Desulfovibrio vulgaris; treated with A. suillum (PS) and chlorate at 48 hours, relative to untreated control): immediate inhibition of sulfide production and removal of sulfide from the medium
sulfide production in marine sediment slurry microcosms (FIG. 4) [1]: sulfide inhibition
